Row | SMILES | melting point
1 | CCCCOC(=O)C1=C(C)NC(c2ccccn2)=NC1c1ccccc1Cl (stereo not shown) | 176 to 178 °C
2 | CC1=C(C(=O)OC(C)C)C(c2ccccc2Cl)N=C(c2ccccn2)N1 (stereo not shown) | 93 to 95 °C
3 | COC(=O)C1=C(C)NC(c2ccccn2)=NC1c1ccccc1C (stereo not shown) | 100 to 101 °C
4 | COC(=O)C1=C(C)NC(c2ccccn2)=NC1c1cc([N+](=O)[O-])ccc1Cl (stereo not shown) | 151 to 153 °C
5 | COC(=O)C1=C(C)NC(c2ccccn2)=NC1c1ccc(-n2ccnn2)cc1 (stereo not shown) | 149 to 150 °C
6 | COC(=O)C1=C(C)NC(c2ccccn2)=NC1c1ccc(Cl)cc1 (stereo not shown) | 201 to 202 °C
7 | COC(=O)C1=C(C)NC(c2cccnc2)=NC1c1ccccc1Cl (stereo not shown) | 131 to 133 °C
8 | COOCC1=C(C)NC(c2ccccn2)=NC1c1cccc([N+](=O)[O-])c1 (stereo not shown) | 179 to 180 °C
9 | COC(=O)C1=C(C)NC(c2ccccn2)=NC1c1ccccc1F (stereo not shown) | 217 to 218 °C
10 | COOCC1=C(C)NC(c2ccccn2)=NC1c1cccc(Cl)c1 (stereo not shown) | 122 to 123 °C
11 | COC(=O)C1=C(C)NC(c2ccccn2)=NC1c1cccc(Cl)c1Cl (stereo not shown) | 125 to 127 °C
12 | COC(=O)C1=C(C)NC(c2ccccn2)=NC1c1ccccc1[N+](=O)[O-] (stereo not shown) | 167 to 168 °C
13 | COOCC1=C(C)NC(c2ccccn2)=NC1c1ccco1 (stereo not shown) | 122 to 124 °C
14 | CCOC(=O)C1=C(C)NC(c2ccccn2)=NC1c1ccccc1 (stereo not shown) | 101 to 103 °C
15 | COC(=O)C1=C(C)NC(c2ccccn2)=NC1c1ccc(C#N)cc1 (stereo not shown) | 141 to 143 °C
16 | COOCC1=C(C)NC(c2ccccn2)=NC1c1ccccc1O (stereo not shown) | 131 to 132 °C
17 | CCOC(=O)C1=C(C)NC(c2ccncc2)=NC1c1ccccc1Cl (stereo not shown) | 101 to 103 °C
18 | COC(=O)C1=C(C)NC(c2ccccn2)=NC1C1CCCCC1.Cl (stereo not shown) | 149 to 150 °C
19 | COC(=O)C1=C(C)NC(c2ccccn2)=NC1c1cccc2ncc(-c3ccccc3)cc12 (stereo not shown) | 176 to 177 °C
20 | COC(=O)C1=C(C)NC(c2ccccn2)=NC1c1cccc2sc(-c3ccccc3)nc12 (stereo not shown) | 172 to 173 °C
21 | COC(=O)C1=C(C)NC(c2ccccn2)=NC1c1ccsc1 (stereo not shown) | 108 to 109 °C
22 | CC1=C(C(=O)OCCC#N)C(c2ccccc2Cl)N=C(c2ccccn2)N1 (stereo not shown) | 138 to 139 °C
23 | CCCOOCC1=C(C)NC(c2ccccn2)=NC1c1ccccc1Cl (stereo not shown) | 105 to 110 °C
24 | COC(=O)C1=C(C)NC(c2ccccn2)=NC1c1ccccc1OC (stereo not shown) | 103 to 104 °C
25 | COC(=O)C1=C(C)NC(c2ccccn2)=NC1c1ccc(F)cc1[N+](=O)[O-] (stereo not shown) | 175 to 176 °C

Source: patent US6436943B1 (dated 2002)
